Measured values taken from patent US20080069913A1, “Anti-Snoring Composition” (PERSEE MEDICA,, priority 2004, published 2008).

Tests used:
[1] = flow time (rate of flow) over 10 cm on a plane tilted at 45°; assay type: physicochemical; settings: 0.5 ml, plate tilted 45°
Protocol: (§1) Three types of tests were performed: flow measurement on a biological membrane, the test of immersion in artificial saliva and the salting-out test. The rate of flow is the time it takes a given volume of liquid to travel 10 centimetres across a plane tilted at 45°. The saliva immersion test aims to highlight the contact time of the product with the biological membrane when it is subjected to the effect of saliva. Finally, the salting-out test aims to highlight the time it takes the product to salt out a tracer when it is subject to permanent “leaching” by the saliva. These three tests are described in full in the scientific literature and are reference tests for measuring the time a solution remains at its site of action in experimental conditions approximating the physiological conditions of the pharyngeal mucosa.
The composition (bioadhesive preparation) was examined under experimental conditions to verify its bioadhesive properties and compare them to a non-bioadhesive reference substance (distilled water) and a liposome-based commercial preparation (liposome preparation). The measurements carried out included flow time on a biological membrane and immersion in artificial saliva.
The rate of flow is the time it takes for a given volume of liquid to travel 10 cm over a plane tilted at 45°. This test was performed on 3 levels: • on a 20 cm^2 stainless-steel plate, non-biological membrane; • on a 20 cm^2 stainless-steel plate covered with a cellulose membrane, biological membrane; • on a 20 cm^2 stainless-steel plate covered in a cellulose membrane impregnated with a 5% mucin solution.
For this study, 0.5 ml was deposited 0.5 cm from the top edge of the plate, the deposit being made in horizontal position. The chronometer starting line is located 5 cm from the top edge of the plate when the liquid crosses it after tilting the plate to 45°. In the same way, the chronometer stopping line is located 5 cm from the bottom edge of the plate when the liquid crosses it.

[2] = artificial saliva immersion test; assay type: physicochemical; settings: membrane covered in mucin, submerged vertically in 2 litres of artificial saliva
Protocol: as §1
The aim of the artificial saliva immersion test is to show the contact time of the product with the biological membrane when subjected to the effect of saliva. As before, the product is deposited on the surface of a biological membrane covered in mucin. After flowing over a distance of 10 cm, the plate/biological membrane/product assembly is submerged vertically in a container with 2 litres of artificial saliva. The time the product remains on the surface of the membrane is determined using a chronometer.

flow time, Stainless-steel support ([1]; 20 cm^2 stainless-steel plate, non-biological): <1″
flow time, Stainless-steel + membrane + mucin ([1]; cellulose membrane impregnated with 5% mucin solution): <1″
flow time, Stainless-steel + membrane ([1]; stainless-steel plate covered with cellulose membrane): <1″
time the product remains on the surface of the membrane [2]: <1″
SMILES: O [Distilled water]
